The text below walks through data of US10300155B2, “Alpha-synuclein ligands” (Washington University, priority 2015, dated 2019).

For orientation: Ki means a measure of affinity in units of concentration, obtained from inhibition or displacement. In general, EC50 refers to the concentration giving half of the maximal effect. As a reminder, the Kd is a measure of binding affinity in units of concentration.

Experiment [1] deals with T1, tau fibrils (Homo sapiens, UniProt P10636). Briefly: ThT competitive assay for tau fibrils (Table 3). Format: binding. Also on record: made in house; host or cells: E. coli. To be noted: for EC50: tau fibrils. The protocol: Tau fibril recombinant protein was produced in E. coli. Additional preparation was performed in a similar fashion to Example 115.
Target sequence in this assay (P10636 560-692 limits assumed): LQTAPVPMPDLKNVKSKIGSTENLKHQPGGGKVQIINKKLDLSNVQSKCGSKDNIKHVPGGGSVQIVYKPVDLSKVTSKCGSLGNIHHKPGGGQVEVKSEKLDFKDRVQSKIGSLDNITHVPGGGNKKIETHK
Another experiment concerns the target AD Tissue. Briefly: Radioligand saturation binding, AD postmortem brain tissue. To be noted: brain tissue homogenate. More on the design: species or system human.
Experiment [2] addresses T2, α-synuclein fibrils (Homo sapiens, UniProt P37840).
T2 construct: made in house; host or cells: E. coli BL21(DE3)RIL
Briefly: Radioligand binding assay with α-synuclein fibrils (Table 8).

Experiment [3] has as its target T2, α-synuclein fibrils. Briefly: ThT competitive assay for α-synuclein fibrils (Table 1). Format: binding. To be noted: for EC50: α-synuclein fibrils. An outline of the steps:
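Competition against ThT binding to recombinant (E. coli) human α-synuclein fibrils, pelleted from a 72 hour fibril reaction and quantified by BCA. Mixtures incubated 60 minutes at room temperature with shaking; ThT fluorescence read. Ki derived from EC50 via Cheng-Prusoff using the ThT saturation Kd.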

Experiment [4] has as its target T3, Aβ fibrils (Homo sapiens, UniProt P05067). Description: ThT competitive assay for Aβ fibrils (Table 2). Also on record: made in house; host or cells: E. coli. To be noted: for EC50: Aβ fibrils. Format: binding. The protocol: […] recombinant protein was produced in E. coli. Additional preparation was performed in a similar fashion to Example 115. […] The inhibitor that binds with highest affinity to Aβ fibrils has the lowest dissociation constant (Ki).

The test system of another experiment is PD Tissue. Briefly: Radioligand saturation binding, PD postmortem brain tissue. Also on record: species or system human. To be noted: brain tissue homogenate. The text has this:
(§1) Brain tissue samples were selected from an autopsy case series of patients evaluated for parkinsonism by movement disorders specialists at the Movement Disorders Center of Washington University School of Medicine in St. Louis. The clinical diagnosis of idiopathic PD was based on modified United Kingdom Parkinson's Disease Society Brain Bank clinical diagnostic criteria with clear clinical response to levodopa [Hughes, A. J., et al, “Accuracy of clinical diagnosis of idiopathic Parkinson's disease: a clinico-pathological study of 100 cases,” 1992, J. Neurol. Neurosurg. Psychiatry, 55:181-184]. Dementia was determined by a movement disorders specialist based on clinical assessment of cognitive dysfunction sufficiently severe to impair activities of daily living, with further evaluation of cognitive impairment using the AD8 and Mini-Mental Status Exam (MMSE) [Galvin, J. E., et al., “The AD8: a brief informant interview to detect dementia,” 2005, Neurology 65:559-564; Folstein, M. F., et al., ““Mini-mental state”. A practical method for grading the cognitive state of patients for the clinician,” 1975, J. Psychiatr Res, 12:189-198]. LB stage was assessed at autopsy using a PD staging scale (range: 0, 1-6) [Braak, H., et al., “Stages in the development of Parkinson's disease-related pathology,” 2004, Cell Tissue Res., 318:121-134]. PD cases were selected based on a clinical diagnosis of PD plus dementia, Braak LB stage 5-6 pathology, and the absence of significant Aβ or tau pathology determined by immunohistochemistry. Control cases were selected based on the absence of α-synuclein, Aβ and tau pathology. Samples were used from both male and female subjects.
(§2) Grey matter was isolated from frozen postmortem frontal cortex tissue by dissection with a scalpel. To prepare insoluble fractions, dissected tissue was sequentially homogenized in four buffers (3 ml/g wet weight of tissue) with glass Dounce tissue grinders (Kimble): 1) High salt (HS) buffer: 50 mM Tris-HCl pH 7.5, 750 mM NaCl, 5 mM EDTA; 2) HS buffer with 1% Triton X-100; 3) HS buffer with 1% Triton X-100 and 1 M sucrose; and 4) phosphate buffered saline (PBS). Homogenates were centrifuged at 100,000×g after each homogenization step and the pellet was resuspended and homogenized in the next buffer in the sequence. For comparison in initial binding studies, crude tissue homogenates were also prepared by homogenization of tissue in only PBS. […]
(§3) Saturation binding assays combine binding substrate and varying radioligand concentrations, with or without the addition of a high concentration (50-100 times the estimated Kd) of a competitor compound to determine nonspecific binding. […] Specific binding is determined by subtracting nonspecific binding from total binding. […]

The target of experiment [5] is T1, tau fibrils. Briefly: Radioligand binding assay with tau fibrils (Table 8). More on the design: made in house; host or cells: E. coli BL21(DE3)RIL.
Target sequence in this assay (P10636 560-692): as the sequence (P10636 560-692 limits assumed) above
The next experiment concerns the target T4, Aβ1-42 fibrils (Homo sapiens, UniProt P05067).
T4 construct: Synthetic Aβ42 peptide (1 mg) (Bachem, Torrance, Calif.); purchased Bachem, Torrance, Calif; host or cells: synthetic peptide
Description: Radioligand binding assay with Aβ1-42 fibrils (Table 8).

The subject of a further experiment is Control Tissue. Briefly: Radioligand saturation binding, control postmortem brain tissue. Also on record: species or system human. To be noted: brain tissue homogenate.
Excerpt: as §1, §2, §3

Experiment [6] addresses T3, Aβ fibrils. Description: Thioflavin T competition assay (Example 130, Table 9), Aβ fibrils. Type of experiment: binding. Also on record: Synthetic Aβ42 peptide (1 mg) (Bachem, Torrance, Calif.); purchased Bachem, Torrance, Calif; host or cells: synthetic peptide. The protocol: An additional 925 μl of mQ-H2O was added. […] Fibril formation was confirmed by ThioT fluorescence.
(§4) Competition assays used a fixed concentration of α-syn, Aβ, or tau fibrils (1 μM), consisting of 3 μM, 50 nM and 4 μM of ThioflavinT respectively. […] To optimize the determination of selectivity, assays for all three fibril species were set up in parallel using a common set of intermediate compound dilutions for each analog. Reactions were incubated at room temperature for 1.5 h before quantifying bound ligand as described above for the saturation binding assay. […] All data points were performed in triplicate. Nonspecific fluorescence was measured in parallel reactions containing ThioT plus each concentration of competitor but no fibrils, and these measurements were subtracted from the reactions with fibrils to yield fibril-specific fluorescence. Data were analyzed using Graphpad. Prism software (version 4.0) to obtain EC50 values by fitting the data to the equation Y=bottom+(top-bottom)/(1+10^(x−log EC50)).

The target of experiment [7] is T2, α-synuclein fibrils. Briefly: Thioflavin T competition assay (Example 130, Table 9), α-synuclein fibrils. Format: binding. The protocol: Freshly transformed BL21 colonies were inoculated into 2 L baffled flasks containing 250 ml sterilized TB (1.2% bactotryptone, 2.4% yeast extract, 0.4% glycerol, 0.17 M KH2PO4, 0.72 M K2HPO4) with 50 μg/ml ampicillin, and incubated overnight at 37° C. with shaking.
as §4

Experiment [8] deals with T1, tau fibrils. Description: Thioflavin T competition assay (Example 130, Table 9), tau fibrils. Type of experiment: binding. Also on record: made in house; host or cells: E. coli BL21(DE3)RIL. The protocol:
Recombinant tau protein was produced in E. coli.
as §4
Target sequence in this assay (P10636 560-692): as the sequence (P10636 560-692 limits assumed) above

Experiment [9] addresses T2, α-synuclein fibrils. Description: ThT saturation binding to α-synuclein fibrils (Example 116). To be noted: saturation curve. The protocol:
The mixture was incubated at room temperature for 1 hour on the shaking plate. The reaction plate was scanned by the excitation wavelength range from 430 to 465 nm. The maximum excitation wavelength (λex) was determined according to the fluorescent intensity-excitation wavelength curve. At (λex), the emission wavelength was scanned to get maximum emission wavelength (λem).
The mixture was incubated at room temperature for 1 hour on the shaking plate. The fluorescent intensity for each cell was measured by the fluorescence reader at λex and λem.

Where “and” joins values, the source holds several entries; their conditions need not be identical. Equal values may be shown once.

T3 sequence (P05067 672-713 limits assumed): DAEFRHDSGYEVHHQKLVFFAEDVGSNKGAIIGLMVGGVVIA
T4 sequence (P05067 672-713 limits assumed): as above
Description for Aβ1-42 fibrils: Synthetic Aβ42 peptide (1 mg) (Bachem, Torrance, Calif.) was first dissolved in 50 μl DMSO. An additional 925 μl of mQ-H2O was added. Finally, 25 μl 1M Tris-HCl pH 7.6 was added to bring the final peptide concentration to 222 μM (1 mg/ml) [16]. The dissolved peptide was incubated for 30 h at 37° C. with shaking at 1000 rpm in an Eppendorf Thermomixer. Fibril formation was confirmed by ThioT fluorescence. To determine the concentration of fibrils, the fibril reaction mix was centrifuged at 15,000×g for 15 min to separate fibrils from monomer. The concentration of Aβ monomer in the supernatant was determined in a BCA protein assay using a BSA standard curve that contained DMSO at a percentage equivalent to the samples. […]
A fixed concentration (1 μM) of α-syn, Aβ, or tau fibrils were incubated for 2 h at 37° C. with increasing concentrations of ThioT in 30 mM Tris-HCl pH 7.4, 0.1% BSA in a reaction volume of 150 μl. Nonspecific binding was determined in a duplicate set of binding reactions containing the same concentration of ThioT with no fibrils. Fluorescence was determined in a Biotek plate reader using a 440/30 excitation filter and a 485/20 emission filter. […] The dissociation constant (Kd) and the maximal number of binding sites (Bmax) values were determined by fitting the data to the equation Y=Bmax*X/(X+Kd) by nonlinear regression using Graphpad Prism software (version 4.0).

As for `COc1ccc2nc(/C=C/c3ccnc(OC)c3)ccc2c1` [TZ-36-28-2T], the Ki on tau fibrils [1] (average, read-out: Ki (nM) Tau (avg)) is 34 nM; on α-synuclein fibrils [3] (average, read-out: Ki (nM) α-syn (avg)), 51.8 nM; on α-synuclein fibrils [3] (individual determinations, read-out: Ki (nM) α-syn), 37 nM and 40 nM and 87 nM and 66 nM and 29 nM; at Aβ fibrils [4] (average, read-out: Ki (nM) Aβ (avg)), 268 nM; at Aβ fibrils [4] (individual determinations, read-out: Ki (nM) Aβ) it was 268 nM. The EC50 at tau fibrils [1] (average, read-out: EC50m (nM) EC50 (avg)) was 82 nM; at tau fibrils [1] (individual determinations, read-out: EC50m (nM) EC50), 82 nM; on α-synuclein fibrils [3] (average, read-out: EC50 (nM) EC50 (avg)) it was 136 nM; on α-synuclein fibrils [3] (individual determinations, read-out: EC50 (nM) EC50), 98 nM and 105 nM and 226 nM and 174 nM and 76 nM; at Aβ fibrils [4] (average, read-out: EC50(nM) EC50 (avg)), 715 nM; at Aβ fibrils [4] (individual determinations, read-out: EC50(nM) EC50), 715 nM. Also, the Kd turned out to be 13 nM at AD Tissue and 30 nM on α-synuclein fibrils [2].

Turning to `COc1cc(/C=C/c2ccc3cc(OCC[18F])ccc3n2)ccn1` [[^18F]TZ-36-148], in the experiment on PD Tissue, the “PD Tissue Bmax (pmol/nmol)” value came to 1510 pmol/nmol. In addition, the “AD Tissue Bmax (pmol/nmol)” value with AD Tissue was 12945 pmol/nmol. Also, the “α-synuclein Bmax (pmol/nmol)” value on α-synuclein fibrils [2] turned out to be 29 pmol/nmol. Moreover, the “Tau fibrils Bmax (pmol/nmol)” value on tau fibrils [5] came out at 58 pmol/nmol. Besides, the “Aβ1-42 fibrils Bmax (pmol/nmol)” value at Aβ1-42 fibrils is on record as 28 pmol/nmol. Further, the “Control Tissue Bmax (pmol/nmol)” value with Control Tissue amounted to 604 pmol/nmol.

Take `COc1cc(/C=C/c2ccc3cc(OCCF)ccc3n2)ccn1` [[^18F]TZ-36-148]: the Kd at PD Tissue turned out to be 167 nM; on AD Tissue, 83 nM; on α-synuclein fibrils [2], 90 nM; at tau fibrils [5], 51 nM; on Aβ1-42 fibrils, 98 nM; at Control Tissue, 477 nM. The EC50 at Aβ fibrils [6] (average, read-out: Aβ-fibrils EC50 (avg)) was 448 nM; on Aβ fibrils [6] (individual determinations, read-out: Aβ-fibrils EC50) it was 435 nM and 462 nM; at α-synuclein fibrils [7] (average, read-out: α-synuclein EC50 (avg)), 46.8 nM; on α-synuclein fibrils [7] (individual determinations, read-out: α-synuclein EC50), 44.5 nM and 49 nM; on tau fibrils [8] (average, read-out: Tau fibrils EC50 (avg)), 278 nM; on tau fibrils [8] (individual determinations, read-out: Tau fibrils EC50), 305 nM and 251 nM. For the same compound, the Ki on Aβ fibrils [6] (average, read-out: Aβ-fibrils Ki (avg)) was 168 nM; on Aβ fibrils [6] (individual determinations, read-out: Aβ-fibrils Ki), 163 nM and 173 nM; on α-synuclein fibrils [7] (average, read-out: α-synuclein Ki (avg)), 18 nM; at α-synuclein fibrils [7] (individual determinations, read-out: α-synuclein Ki), 17 nM and 19 nM; on tau fibrils [8] (individual determinations), 124 nM and 102 nM.

For `Cc1ccc2c(c1)sc(-c1ccc(N(C)C)cc1)[n+]2C` [ThT, Thioflavin T], the “Bmax for ThioT binding to fibrils” value at α-synuclein fibrils [9] worked out at 5672 afu.

Take `COc1ccc2nc(/C=C/c3ccnc(OC)c3)ccc2c1` [[^11C]TZ-36-28-2T]: on PD Tissue, the Kd came out at 55 nM and the “PD Tissue Bmax (pmol/nmol)” value is 367 pmol/nmol. In addition, the “AD Tissue Bmax (pmol/nmol)” value in the experiment with AD Tissue amounted to 4316 pmol/nmol. Also, the “α-synuclein Bmax (pmol/nmol)” value on α-synuclein fibrils [2] was 51 pmol/nmol. For the same compound, in the experiment with Control Tissue, the “Control Tissue Bmax (pmol/nmol)” value was 1081 pmol/nmol and binding was put at a Kd of 158 nM.
